Values after ≈ are worked out from the molar mass of the structure shown. Structures can show the parent of a compound that is named as a salt. Where two headings read alike, the source gives them in different places.
Legend:
mouse [1] = assay: spontaneous motility test (hypomotility), mouse; assay type: in vivo, mice; settings: po, 1 h, orally, 60 minutes before measuring, 50% reduction of mean motility, first 5 minutes, read-out: Hypomotility ED 50
Description: (§1) The neuroloptic effects of the compounds according to the invention have been shown with respect to the CD rat (Charles RIVER) taken orally in the catalepsy test according to S. COURVOISIER, R. DUCROT, and L. JULOU, in Psychotropic Drugs, S. GARATTINI and V. GHETTI, Edit.--ELSEVIER Publ. Co., AMSTERDAM, LONDON, NEW YORK, PRINCETON, 1957 P. 373 and also in the traction test of CD1 (Charles RIVER) mice taken orally S. COURVOISIER, Quart. Rev. Psychiat. Neurol. 17, 25 (1956), on the one hand and also in the spontaneous motility test.
This latter technique comprises keeping an account of the displacements of the mice by means of a floor of metal strips which enables the spontaneous activity of the animals to be recorded during the first 5 minutes subsequent to their being introduced into the measuring chamber. The products are dispensed 60 minutes before measuring is effected and 10 mice are used per dose. The results are expressed in ED 50 which represents the dose of substance capable of reducing the mean motility of the treated animals by 50% relative to that of the sample group which has only received the dispensing carrier.

mice [2] = assay: analgesic activity, painful abdominal torsions test with phenylbenzoquinone; assay type: in vivo, CD 1 (Charles RIVER) mice; settings: for ED50: Mus musculus, po, mice, orally, read-out: Phenylbenzoquinone test on mice AD 50
Description: The analgesic properties of the products according to the invention have been shown with CD 1 (Charles RIVER) mice in the painful abdominal torsions test with phenylbenzoquinone according to the technique of E. Siegmund, R. Cadmus and Go.Lu--Proc. Soc. Exp. Biol. Med., 95, 729, (1957).

head twitch = assay: anti-serotonine activity, head twitch; assay type: in vivo, CD 1 (Charles RIVER) mice; settings: Mus musculus, po; mice, orally; read-out: "Head-twitch" AD 50
Description: (§2) The anti-serotonine activities of the compounds according to the invention have been shown by oral administration to the CD (Charles RIVER) rats using the technique of the serotonine plantar oedema (W. Theobald and R. Domenjoz--Arzneimittel Forsch, 8, 18, 1958 and with the CD 1 (Charles RIVER) mice using the technique known as "head twitch" according to S. J. Corne, R. W. Pickering and B. T. Warner, Brit. J. Pharmacol., 20, 106, (1963). The anti-serotonine activity has also been determined on the one hand on the tricoloured guinea-pig, given intravenously, according to a method derived from H. Konzet and R. Rossler, Arch. exp. Pathol, Pharmakol., 195, 71, (1940) and on the other hand in vitro with respect to the serotonine spasm of the isolated uterus of the rat according to the technique of A. Fanchamps, W. Doepfener, H. Weidman and A. Cerletti, Schw. Med. Worsch, 90, 1940, (1960).

serotonine = assay: antiserotonine properties on the whole (all four tests); parameters: species or system rat, mice, guinea pig; settings: comparison within the series
Description: as §2

serotonine bronchospasms = assay: anti-serotonine activity, serotonine bronchospasms; assay type: in vivo, tricoloured guinea-pig; settings: Cavia porcellus, iv; guinea pig, intravenously; read-out: Serotonine bronchospasms ED 50
Description: as §2

[3] = acute toxicity, LD 50, CD 1 mice; assay type: in vivo; settings: mouse, in vivo
Description: (§3) The acute toxicities of the compounds according to the invention have been determined on CD 1 (Charles RIVER) mice by intravenous and oral methods. The LD 50 of each compound has been calculated by the cumulative method of J. J. Reed and H. Muench, (Amer. J. Hyg., 1938, 27, 493).

[4] = tested on: serotonine plantar oedema; assay: anti-serotonine activity, serotonine plantar oedema; assay type: in vivo, CD (Charles RIVER) rats; settings: po; rat, orally; read-out: Serotonine plantar oedema AD 50
Description: as §2

[5] = tested on: isolated duodenum of the rabbit (acetylcholine); assay: spasmolytic effect on isolated duodenum, acetylcholine spasm; assay type: cell-based; settings: Oryctolagus cuniculus, read-out: Spasmolytic effects EC 50 with respect to acetylcholine
Description: (§4) Ges. Physiol., 102, 123, (1904) with respect to the spasms of the isolated duodenum of rabbits caused either by acetylchlorine for the spasmolytic nemotropes or by barium chloride for the spasmolytic musculotropes.

dogs = assay: anti-emetic activity, apomorphine vomiting test on dogs; assay type: in vivo; settings: for ED50: Canis lupus familiaris, po, read-out: Anti-emetic activity on dogs ED 50
Description: The anti-emetic properties of the compounds according to the invention have been shown by oral administration of apomorphine to dogs in the vomiting test according to G. Chen and C. J. Ensor, Pharmacol. exp. Therap., 98, 24 (1950).

[6] = tested on: isolated duodenum of the rabbit (barium chloride); assay: spasmolytic effect on isolated duodenum, barium chloride spasm; assay type: cell-based; settings: Oryctolagus cuniculus, read-out: Spasmolytic effects EC 50 with respect to barium chloride
Description: as §4

solubility = assay type: physicochemical
[7] = tested on: isolated duodenum of the rabbit; assay: spasmolytic activity overall; assay type: cell-based; settings: isolated duodenum of rabbits
Description: as §4

mouse [8] = assay: traction test, mouse; assay type: in vivo, CD1 (Charles RIVER) mice; settings: po, orally, read-out: Traction AD 50
Description: as §1

rat = assay: catalepsy test, rat; assay type: in vivo, CD rat (Charles RIVER); settings: po, orally, read-out: Catalepsy AD 50
Description: as §1

mice [9] = assay: acute toxicity, LD 50, CD 1 mice; assay type: in vivo; settings: intravenous
Description: as §3

[10] = intravenous, read-out: Acute toxicity for mice LD 50, intravenous
[11] = oral, read-out: Acute toxicity for mice LD 50, orally

Structure (SMILES)	ED50 (mouse [1])	ED50 (mice [2])	ED50 (head twitch)	ED50 (serotonine bronchospasms)	LD50 [3, 10]	LD50 [3, 11]	ED50 [4]	EC50 [5]	ED50 (dogs; dogs, orally, apomorphine)	EC50 [6]	solubility in dilute hydrochloric acid (solubility)	solubility in ethanol (alcohol) (solubility)	solubility in water (solubility)	ED50 (mouse [8])	ED50 (rat)	Acute toxicity for mice LD 50, intravenous (mice [9])	other results
CCCCNc1nc(Cl)c(SC)c(N2CCN(C)CC2)n1 [Example 31, 2-n.butylamino-4-N-methylpiperazino-6-chloro-5-methylthiopyrimidine]	20 mg/kg	100 mg/kg	13 mg/kg	0.1 mg/kg	98 mg/kg	~225 mg/kg	> 100 mg/kg	1.2 µg/mL (≈ 3.64 µM)	~3 mg/kg	0.3 µg/mL (≈ 0.909 µM)	soluble	soluble	insoluble				antiserotonine properties ranking (serotonine): the greatest antiserotonine properties on the whole
COCCCNc1nc(Cl)c(SC)c(N2CCN(C)CC2)n1 [Example 5, 3'-Methoxy-2-propylamino-4-N-methylpiperazino-6-chloro-5-methylthio-pyrimidine]		35 mg/kg			56 mg/kg	~200 mg/kg	90 mg/kg	> 5 µg/mL		1.3 µg/mL (≈ 3.76 µM)				30 mg/kg	175 mg/kg		spasmolytic activity type / ranking [7]: most effective; analgesic activity ranking (mice [2]; comparison within the series): the most active; antiserotonine properties ranking (serotonine): the greatest antiserotonine properties on the whole
CCCNc1nc(Cl)c(SC)c(N2CCN(C)CC2)n1 [Example 30, 2-n.propylamino-4-N-methylpiperazino-6-chloro-5-methylthiopyrimidine]	25 mg/kg	> 400 mg/kg	10 mg/kg	0.05 mg/kg	60 mg/kg	~200 mg/kg		9 µg/mL (≈ 28.5 µM)	0.16 mg/kg	0.2 µg/mL (≈ 0.633 µM)	soluble	soluble	insoluble		> 300 mg/kg		spasmolytic activity type / ranking [7]: most effective; antiserotonine properties ranking (serotonine): the greatest antiserotonine properties on the whole; anti-vomiting ranking (dogs; comparison within the series, dogs): the most strong anti-vomiting agents
CCCCCCNc1nc(Cl)c(SC)c(N2CCN(C)CC2)n1 [Example 25, 2-n.hexylamino-4-N-methylpiperazino-6-chloro-5-methylthiopyrimidine]	70 mg/kg	85 mg/kg	55 mg/kg	0.18 mg/kg	70 mg/kg		~300 mg/kg	1 µg/mL (≈ 2.79 µM)	5 mg/kg	0.2 µg/mL (≈ 0.559 µM)	soluble	very soluble	insoluble	> 300 mg/kg	> 300 mg/kg		spasmolytic activity type / ranking [7]: most effective; solubility in solvents (solubility; solvents): very soluble
CCCCN1CCN(c2nc(N3CCOCC3)nc(Cl)c2SC)CC1 [Example 29, 2-Morpholino-4-N-butylpiperazino-5-methylthio-6-chloropyrimidine]	50 mg/kg	55 mg/kg	80 mg/kg			~600 mg/kg			> 5 mg/kg			soluble	insoluble			insoluble	solubility in dilute methanesulphonic acid (solubility): soluble
CCNc1nc(Cl)c(SC)c(N2CCN(C)CC2)n1 [Example 1, 2-Ethylamino-4-N-methyl-piperazino-6-chloro-5-methylthio-pyrimidine hydrochloride]		35 mg/kg	30 mg/kg	6 mg/kg	41 mg/kg	~200 mg/kg	160 mg/kg	5 µg/mL		1.6 µg/mL				> 35 mg/kg	85 mg/kg		ED50 (dogs): 0.35 mg/kg
CSc1c(Cl)nc(Nc2ccccc2)nc1N1CCN(C)CC1 [Example 4, 2-phenylamino-4-N-methylpiperazino-6-chloro-5-methylthio-pyrimidine hydrochloride]			60 mg/kg			~600 mg/kg										insoluble	
CSc1c(Cl)nc(NCc2ccccc2)nc1N1CCN(C)CC1 [Example 26, 2-Benzylamino-4-N-methylpiperazino-5-methylthio-6-chloropyrimidine]	20 mg/kg	35 mg/kg	17 mg/kg	0.05 mg/kg	85 mg/kg	~525 mg/kg		0.2 µg/mL (≈ 0.55 µM)	~2 mg/kg	0.17 µg/mL (≈ 0.467 µM)	scarcely soluble		soluble	45 mg/kg	33 mg/kg		solubility in dilute methanesulphonic acid (solubility): soluble
CSc1c(Cl)nc(N(C)C(C)=O)nc1N1CCN(C)CC1 [Example 16, 2-(N-methyl-N-acetyl)amino-4-N-methylpiperazino-5-methylthio-6-chloro-pyrimidine hydrochloride]			> 100 mg/kg			~525 mg/kg	100 mg/kg									insoluble	
CC(=O)Nc1nc(Cl)c(C)c(N2CCN(C)CC2)n1 [Example 14, 2-Acetylamino-4-N-methylpiperazino-5-methyl-6-chloro-pyrimidine]		35 mg/kg				~270 mg/kg			3.7 mg/kg							insoluble	
CCOCCOc1nc(NC)nc(N2CCN(C)CC2)c1SC [Example 20, 2-Methylamino-4-N-methylpiperazino-5-methylthio-6-β-ethoxyethoxy-pyrimidine hydrochloride]						~265 mg/kg										insoluble	
CSc1c(Cl)nc(NC2CCCCC2)nc1N1CCN(C)CC1 [Example 23, 2-Cyclohexylamino-4-N-methylpiperazino-6-chloro-5-methylthiopyrimidine]	220 mg/kg	100 mg/kg	67 mg/kg	0.3 mg/kg	89 mg/kg			70 µg/mL (≈ 197 µM)		0.25 µg/mL (≈ 0.702 µM)	soluble	soluble	insoluble	> 300 mg/kg	300 mg/kg		
CCCCN1CCN(c2nc(N(C)Cc3ccccc3)nc(Cl)c2SC)CC1 [Example 27, 2-(N-methyl N-benzylamino)-4-N-butylpiperazino-5-methylthio-6-chloropyrimidine hydrochloride]	160 mg/kg	400 mg/kg					> 400 mg/kg		1.5 mg/kg				insoluble			insoluble	solubility in dimethylsulphoxide (solubility; dimethylsulphoxide): soluble

From patent US4166852A, “Piperazino-pyrimidines and their use as spasmolytic agents” (priority 1974, dated 1979)
